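Test compounds were applied to cells in 96-well plates for 48 hours at 5 doses. The concentration for 50% growth inhibition is given as GI50.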 Activity calls are given as the source filed them. Rule as the data show it: active = GI50 up to about 1.1 µM and inactive = higher.
Assays:
Test in all cases: NCI anticancer screen, dose series, 48 h
TK-10 = tested on: TK-10
SNB-19 = tested on: SNB-19
UACC-257 = tested on: UACC-257
HL-60 = tested on: HL-60
HOP-92 = tested on: HOP-92
MDA-MB-435 = tested on: MDA-MB-435
SK-MEL-28 = tested on: SK-MEL-28
DU-145 = tested on: DU-145
HCT-116 = tested on: HCT-116
COLO 205 = tested on: COLO 205
SF-268 = tested on: SF-268
CAKI-1 = tested on: CAKI-1
SK-OV-3 = tested on: SK-OV-3
OVCAR-5 = tested on: OVCAR-5
HCT-15 = tested on: HCT-15
BT-549 = tested on: BT-549
OVCAR-8 = tested on: OVCAR-8
SW-620 = tested on: SW-620
SF-295 = tested on: SF-295
MDA-MB-231 = tested on: MDA-MB-231
786-0 = tested on: 786-0
ACHN = tested on: ACHN
A498 = tested on: A498
K562 = tested on: K562
HOP-62 = tested on: HOP-62
HCC 2998 = tested on: HCC 2998
LOX IMVI = tested on: LOX IMVI
KM12 = tested on: KM12
PC-3 = tested on: PC-3
UACC-62 = tested on: UACC-62
SN12C = tested on: SN12C
SNB-75 = tested on: SNB-75
CCRF-CEM = tested on: CCRF-CEM
MOLT-4 = tested on: MOLT-4
OVCAR-4 = tested on: OVCAR-4
NCI/ADR-RES = tested on: NCI/ADR-RES
Hs-578T = tested on: Hs-578T
NCI-H460 = tested on: NCI-H460
SR = tested on: SR
OVCAR-3 = tested on: OVCAR-3
MDA-N = tested on: MDA-N
T47D = tested on: T47D
RPMI-8226 = tested on: RPMI-8226
U-251 = tested on: U-251
MCF7 = tested on: MCF7
HT-29 = tested on: HT-29
SF-539 = tested on: SF-539
UO-31 = tested on: UO-31
EKVX = tested on: EKVX
IGROV-1 = tested on: IGROV-1
A549 = tested on: A549
M14 = tested on: M14
SK-MEL-2 = tested on: SK-MEL-2
SK-MEL-5 = tested on: SK-MEL-5
NCI-H23 = tested on: NCI-H23
NCI-H522 = tested on: NCI-H522
NCI-H226 = tested on: NCI-H226
RXF 393 = tested on: RXF 393
Malme-3M = tested on: Malme-3M

Measured: GI50

CN(C)c1ccc(/C=C2\N=C(c3ccccc3)N(c3ccc4c(c3)Sc3cc(N5C(=O)/C(=C/c6ccc(N(C)C)cc6)N=C5c5ccccc5)ccc3N4)C2=O)cc1
49.2 µM: HCT-15
inactive: TK-10 17.2 µM | SNB-19 17.5 µM | UACC-257 19.7 µM | HL-60 27.5 µM | HOP-92 18.3 µM | MDA-MB-435 21.5 µM | SK-MEL-28 50.8 µM | DU-145 22.1 µM | HCT-116 26.3 µM | COLO 205 > 100 µM | SF-268 19.2 µM | CAKI-1 17.9 µM | SK-OV-3 13.6 µM | OVCAR-5 18.8 µM | BT-549 22.9 µM | OVCAR-8 18.1 µM | SW-620 44.7 µM | SF-295 15.2 µM | MDA-MB-231 18.2 µM | 786-0 22.9 µM | ACHN 16.7 µM | A498 16.8 µM | K562 29.6 µM | HOP-62 13.7 µM | HCC 2998 19.6 µM | LOX IMVI 19.5 µM | KM12 > 100 µM | PC-3 16.9 µM | UACC-62 16.6 µM | SN12C 19.1 µM | SNB-75 11.9 µM | CCRF-CEM 3.73 µM | MOLT-4 61.5 µM | OVCAR-4 22.6 µM | NCI/ADR-RES 28.4 µM | Hs-578T 27.1 µM | NCI-H460 23.9 µM | SR 90.6 µM | OVCAR-3 12.2 µM | MDA-N 53.8 µM | T47D 19.6 µM | RPMI-8226 20.4 µM | U-251 15.6 µM | MCF7 17 µM | HT-29 54.7 µM | SF-539 17.5 µM | UO-31 18.2 µM | EKVX 25.8 µM | IGROV-1 18.1 µM | A549 22.1 µM | M14 21.2 µM | SK-MEL-2 18.6 µM | SK-MEL-5 17.9 µM

O=C1C=CC(=O)c2c1ccc1c3ccccc3n(Cc3ccccc3)c21
active: RPMI-8226 0.231 µM
21.9 µM: HCT-15
inactive: NCI-H23 19.5 µM | TK-10 18.6 µM | SNB-19 > 100 µM | UACC-257 19 µM | NCI-H522 14.3 µM | HOP-92 > 10 µM | MDA-MB-435 26.1 µM | SK-MEL-28 24.4 µM | NCI-H226 7.29 µM | DU-145 > 80.4 µM | HCT-116 19.1 µM | COLO 205 18.9 µM | SF-268 32.1 µM | CAKI-1 17.2 µM | SK-OV-3 > 100 µM | OVCAR-5 20.9 µM | BT-549 20.4 µM | OVCAR-8 28.2 µM | SW-620 7.21 µM | SF-295 > 100 µM | MDA-MB-231 20.3 µM | 786-0 16.2 µM | ACHN 18.2 µM | A498 19.8 µM | K562 2.84 µM | HOP-62 > 100 µM | HCC 2998 > 37 µM | LOX IMVI 20 µM | KM12 > 57.5 µM | PC-3 21.8 µM | UACC-62 25.4 µM | SN12C 21.6 µM | SNB-75 > 82.8 µM | CCRF-CEM 1.8 µM | MOLT-4 7.55 µM | OVCAR-4 13.3 µM | NCI/ADR-RES 42.2 µM | Hs-578T 42.2 µM | NCI-H460 > 43.2 µM | SR 10.9 µM | OVCAR-3 17.3 µM | MDA-N 23 µM | T47D 25.1 µM | RXF 393 16.8 µM | U-251 51.9 µM | MCF7 17.1 µM | HT-29 24.9 µM | SF-539 38.4 µM | UO-31 20.2 µM | EKVX > 64.9 µM | IGROV-1 21.6 µM | A549 > 100 µM | M14 18 µM | SK-MEL-2 31.5 µM | SK-MEL-5 32.3 µM | Malme-3M 16.6 µM

Clc1ccc(C(Cc2cccc(Cl)c2)c2c(Cl)nc(N3CCNCC3)nc2Cl)cc1 (stereo not drawn)
active: EKVX 0.128 µM
inactive: NCI-H23 19 µM | TK-10 16.4 µM | SNB-19 16.9 µM | UACC-257 18.8 µM | NCI-H522 14.8 µM | HL-60 11.1 µM | HOP-92 13.9 µM | MDA-MB-435 16.7 µM | SK-MEL-28 19.5 µM | NCI-H226 3.12 µM | DU-145 19.7 µM | HCT-116 13.2 µM | COLO 205 2.9 µM | CAKI-1 12.1 µM | SK-OV-3 13.7 µM | OVCAR-5 12.5 µM | BT-549 20.6 µM | OVCAR-8 19.1 µM | SW-620 16.5 µM | SF-295 16.8 µM | MDA-MB-231 13.5 µM | 786-0 14.4 µM | ACHN 15.5 µM | A498 15.2 µM | K562 12.6 µM | HOP-62 15.4 µM | HCC 2998 15.1 µM | LOX IMVI 12.9 µM | KM12 13.9 µM | PC-3 16.9 µM | UACC-62 19.5 µM | SNB-75 13.3 µM | CCRF-CEM 15.3 µM | MOLT-4 12.2 µM | OVCAR-4 16.5 µM | NCI/ADR-RES 18 µM | Hs-578T 19.8 µM | NCI-H460 16.7 µM | SR 5.38 µM | OVCAR-3 15.8 µM | MDA-N 16.1 µM | T47D 16.4 µM | RPMI-8226 22.3 µM | U-251 16.4 µM | MCF7 10.8 µM | HT-29 > 100 µM | SF-539 19.5 µM | UO-31 12.9 µM | IGROV-1 69.2 µM | A549 16 µM | M14 13.4 µM | SK-MEL-2 21.6 µM | SK-MEL-5 16.1 µM | Malme-3M 13.6 µM
13.6 µM: HCT-15

Source: ChEMBL document CHEMBL1201862, “PubChem BioAssay data set” (2004)
